From US20220249637A1, “COMBINATION THERAPY OF A CELL-MEDIATED CYTOTOXIC THERAPY AND AN INHIBITOR OF A PROSURVIVAL BCL2 FAMILY PROTEIN” (Juno Therapeutics, Inc., priority 2019, published 2022)

Tested on: cells of the cell therapy (CAR-T cells)
Test: Activation induced cell death of cells of the cell therapy in presence of inhibitor
Assay type: cell-based
Details: particularly if given at too high of a dosage
Text: In some aspects, the provided methods, combinations and uses provide for or achieve improved or more durable responses or efficacy as compared to alternative methods, such as alternative methods involving only the administration of the immunotherapy or cell therapy but not in combination with an inhibitor of a prosurvival BCL2 family protein (e.g. venetoclax). In some embodiments, the methods are advantageous by virtue of administering an inhibitor of a prosurvival BCL2 family protein (e.g. venetoclax) shortly before (e.g. within 7 days) or concurrently with administration of an immunotherapy or a cell therapy (e.g. T cell therapy, such as CAR-T cell), thereby sensitizing the tumor and/or making the tumor less resistant to, or more susceptible to, treatment with the immunotherapy or cell therapy. […] However, delaying administration of the inhibitor of a prosurvival BCL2 family protein (e.g. venetoclax) until a time after AICD is at or has reached it peak or been reduced after having peaked can avoid detrimental effects on the cells of the cell therapy while substantially improving, e.g. synergistically increasing, T cell-mediated killing of the tumor by cells of the cell therapy (e.g. CAR-T cells).

## CC1(C)CCC(CN2CCN(c3ccc(C(=O)NS(=O)(=O)c4ccc(NCC5CCOCC5)c([N+](=O)[O-])c4)c(Oc4cnc5[nH]ccc5c4)c3)CC2)=C(c2ccc(Cl)cc2)C1 [venetoclax]
  activation induced cell death (AICD) of cells of the cell therapy: can exacerbate activation induced cell death (AICD)
